Reference: US20250241927A1, “MEDICAMENT COMPRISING A P2X4 RECEPTOR ANTAGONIST FOR PREVENTING OR TREATING NOCICEPTIVE PAIN AND/OR VISCERAL PAIN” (NIPPON CHEMIPHAR CO., LTD., priority 2021, published 2025)
“Also recorded” adds a separate entry of the source. Read-outs that look alike come from different tables or passages of the source.

What was measured:
Assay type in all cases: in vivo, rat
[1] = Prevention test: body weight of DNBS-treated rats; conditions: Day 1 vs Day 6, DNBS weight loss approximately 10%, not significant
Experimental: (§1) In addition, in order to evaluate an effect of repeated administration of a P2X4 antagonist, two different tests (that is, prevention test and intervention test) were adopted. In the prevention test, the test medicament was administered daily to the rats immediately after the delivery of DNBS (Day 1), and the treatment was continued until the rats were sacrificed on the 6th day (Day 6). In the intervention test, the daily treatment with the medicament began 2 days after the delivery of DNBS (Day 3), and the rats were sacrificed on the 8th day (Day 8).
Visceral sensitivity was evaluated by measuring AWR to colorectal distension (0.5 to 3 mL). In the prevention test, the test medicament was administered daily to the rats immediately after the administration of DNBS, and the treatment was continued until the rats were sacrificed on the 6th day (Day 6). The evaluation was performed 6 days after the induction of colitis and 24 hours after the last treatment with Compound A (A) and Compound B (B). After the test, the animals were sacrificed, and macroscopic damage scores were assigned to their colons (FIG. 2C and FIG. 2D). In FIG. 2E and FIG. 2F, weights (g) of the animals before the DNBS injection (Day 1) and at the end of the preventive treatment with Compound A and Compound B (Day 6) are shown, respectively.

[2] = Intervention test: body weight of DNBS-treated rats; conditions: Day 1 vs Day 8, DNBS weight loss approximately 10%, not significant
Experimental: as §1
In the test, the administration of the compounds began 2 days after the delivery of DNBS (Day 3) and was continued until the rats were sacrificed on the 8th day (Day 8). Evaluation was performed 8 days after the induction of colitis (Day 8) and 24 hours after the last treatment with Compound A (A) and Compound B (B). After the test, the animals were sacrificed, and macroscopic damage scores were assigned to their colons (FIG. 3C and FIG. 3D). In FIG. 3E and FIG. 3F, weights (g) of the animals before the DNBS injection (Day 1) and at the end of the intervention treatment with Compound A and Compound B (Day 8) are reported, respectively.

[3] = tested on: visceral pain (visceral hypersensitivity) in rats induced by intrarectal injection of DNBS; assay: Acute administration test: abdominal withdrawal reflex (AWR) to colorectal distension in DNBS-treated rats
Experimental: (§2) Male Sprague-Dawley rats (Envigo, Varese, Italy) weighing approximately 300 g at the beginning of a test were used. The animals were housed in Centro Stabulazione Animali da Laboratorio (CeSAL, University of Florence) and used at least one week after their arrival. Four rats were raised per cage (size 26×41 cm). The animals were fed with standard laboratory diet and tap water ad libitum and kept at 23±1° C. with a 12-hour light/dark cycle (light at 7:00 in the morning). All animal manipulations were carried out according to the European Community Guidelines for Animal Care (DL116/92) and the application of European Communities Council Directive of Nov. 24, 1986 (86/609/EEC). The ethical policy of the University of Florence complies with the Guide for the Care and Use of Laboratory Animals of the US National Institutes of Health (NIH Publication No. 85-23, revised 1996, University of Florence assurance number: A5278-01). Formal approval to conduct the experiments described was obtained from the Animal Subjects Review Board of the University of Florence. Experiments involving animals have been reported according to ARRIVE guidelines (McGrath and Lilley, Br. J. Pharmacol. 2015; 172:3189-3193). All efforts were made to minimize suffering of the animals and to reduce the number of animals used.
Colitis was induced by intrarectal administration of 15 mg of 2,4-dinitrobenzenesulfonic acid (DNBS; Sigma-Aldrich S.r.l., Milano, Italia) in 0.25 ml of 50% ethanol via a polyethylene PE-60 catheter inserted approximately 8 cm into the anus, while the rat was under short-term anesthesia by isoflurane (2%). […]
Compound A and Compound B were dissolved in water and orally administered 30 minutes before the beginning of a test, and an acute effect was evaluated.
(§3) Visceral sensitivity to colorectal distension (CRD) was evaluated by measurement of abdominal withdrawal reflex (AWR) in conscious animals using semiquantitative scores (Lucarini et al., Cells. 2020; 9 (8): E1772). […]
Visceral sensitivity was evaluated by measuring abdominal withdrawal reflex (AWR) to colorectal distension (0.5 to 3 mL).

[4] = tested on: colonic damage in rats induced by the intrarectal injection of DNBS; assay: Prevention test: macroscopic colonic damage score in DNBS-treated rats; conditions: prevention test: daily from Day 1 to Day 6
Experimental: (§4) Colitis was induced by intrarectal administration of 15 mg of 2,4-dinitrobenzenesulfonic acid (DNBS; Sigma-Aldrich S.r.l., Milano, Italia) in 0.25 ml of 50% ethanol via a polyethylene PE-60 catheter inserted approximately 8 cm into the anus, while the rat was under short-term anesthesia by isoflurane (2%). To control rats, 0.25 ml of a vehicle was administered.
(§5) In addition, in order to evaluate an effect of repeated administration of a P2X4 antagonist, two different tests (that is, prevention test and intervention test) were adopted. […]
(§6) The macroscopic criteria were as follows: • presence of adhesion between colon and another intraperitoneal organ (0-2: no adhesions: 0 points, adhesion with only one adjacent organ: 1 point, and adhesions with a plurality of adjacent organs: 2 points); • consistency of colon fecal matter (indirect marker of diarrhea; 0-2: formed stool: 0 points, loose stool: 1 point, and liquid stool: 2 points); • thickening of colonic wall (mm: 1 point was scored for 1 mm); and • presence and spread of hyperemia and macroscopic mucosal damage (0-5: none: 0 points, hyperemic: 1 point, ulcers without hyperemia or thickening of intestinal wall: 2 points, ulcer with inflammation at one site: 3 points, ulcers with inflammation at two or more sites: 4 points, and wide site of damage exceeding 1 cm along length of colon: 5 points). […]

[5] = tested on: occludin expression in colonic mucosa; assay: Occludin expression in colonic tissue of DNBS-induced rats by western blotting; conditions: 10 mg/kg
[6] = tested on: colonic damage in rats induced by the intrarectal injection of DNBS; assay: Intervention test: macroscopic colonic damage score in DNBS-treated rats; conditions: intervention test: daily from Day 3 to Day 8
Experimental: as §4, §5, §6

[7] = tested on: visceral pain (visceral hypersensitivity) in rats induced by intrarectal injection of DNBS; assay: Intervention test (repeated administration): AWR to colorectal distension in DNBS-treated rats; conditions: for effect on visceral pain compared with the treatment with dexamethasone: intervention test; for onset of visceral pain (visceral hypersensitivity): intervention test: daily from Day 3 to Day 8, evaluated Day 8, 24 hours after last treatment
Experimental: as §2, §4, §1
Visceral sensitivity to colorectal distension (CRD) was evaluated by measurement of abdominal withdrawal reflex (AWR) in conscious animals using semiquantitative scores (Lucarini et al., Cells. 2020; 9 (8): E1772). Briefly, the rats were anesthetized with isoflurane. A lubricated latex balloon (length: 4.5 cm) that is assembled into an embolectomy catheter by being attached to a polyethylene tube to be connected to a syringe filled with water was inserted into the rectum and the descending colon of adult rats through the anus. […]

[8] = tested on: visceral pain (visceral hypersensitivity) in rats induced by intrarectal injection of DNBS; conditions: prevention test: daily from Day 1 to Day 6, evaluated 6 days after colitis induction, 24 hours after last treatment
Experimental: as §2, with “Experiments involving animals have been reported according to ARRIVE guidelines (McGrath and Lilley, Br. J. Pharmacol. 2015; 172:3189-3193). All efforts were made to minimize suffering of the animals and to reduce the number of animals used.” left out
as §3
Visceral sensitivity was evaluated by measuring AWR to colorectal distension (0.5 to 3 mL). […]

O=C1CC(=O)N(c2cccc(-c3noc(=S)[nH]3)c2)c2ccc3ccccc3c2N1.[Na] [Compound A17, 5-[3-(5-thioxo-4H-[1,2,4]oxadiazol-3-yl)phenyl]-1H-naphtho[1,2-b][1,4]diazepine-2,4(3H,5H)-dione sodium salt]
weight loss caused by DNBS [1]: did not affect | weight loss caused by DNBS [2]: does not affect | visceral pain threshold ([3]; acute administration, higher doses, DNBS animals): returned to a control value | AWR to colorectal distension ([3]; acute oral administration 10 to 30 mg/kg, 30 minutes before test, seven days after DNBS): significantly and dose-dependently decreased | colonic damage (macroscopic damage score) [4]: counteracted | occludin expression in inflamed tissues compared to the DNBS-induced rats ([5]; listed as Compound A, sodium salt): increased; also recorded: counteract | colonic damage (macroscopic damage score) [6]: significant reduction | effect on visceral pain compared with the treatment with dexamethasone [7]: more effective | onset of visceral pain (visceral hypersensitivity) [7]: significantly reduces | onset of visceral pain (visceral hypersensitivity) [8]: counteracted

O=C1CC(=O)N(c2ccc(NC(=O)c3ccccc3I)cc2)c2ccc3ccccc3c2N1 [Compound B48, 5-[4-(2-iodobenzoylamino)phenyl]-1H-naphtho[1,2-b][1,4]diazepine-2,4(3H,5H)-dione]
weight loss caused by DNBS [1]: did not affect | weight loss caused by DNBS [2]: does not affect | AWR to colorectal distension ([3]; acute oral administration 10 and 30 mg/kg, colorectal distension 1 to 2 mL): significantly reduced | colonic damage (macroscopic damage score) [4]: counteracted | occludin expression in inflamed tissues compared to the DNBS-induced rats ([5]; listed as Compound B): increased; also recorded: counteract | colonic damage (macroscopic damage score) [6]: significant reduction | effect on visceral pain compared with the treatment with dexamethasone [7]: more effective | onset of visceral pain (visceral hypersensitivity) [7]: significantly reduces | onset of visceral pain (visceral hypersensitivity) [8]: counteracted
